In US20050282755A1, “Compositions having antimicrobial activity and uses thereof” (priority 2004, published 2005):
Values after ≈ are worked out from the molar mass of the structure shown. Non-standard residues stand in square brackets, D forms with d. Residues, ends and D or L forms follow the SMILES beside them. *: point of attachment. Lauroyl = CCCCCCCCCCCC(=O)*

Columns and labels:
Assay type in all cases: cell-based
[1] = tested on: Staphylococcus epidermidis ATCC 12228; experiment: MIC, NCCLS M7-A6 broth microdilution (Table 9, no superscript); details: ATCC 12228
Outline: (§1)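 Log-phase bacteria were added to wells containing peptide in cation-adjusted Mueller Hinton broth at a final 5×10^5 to 1×10^6 CFU/milliliter. Plates then sat overnight at 37° C. Wells were scored visually for turbidity against a peptide-free control.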

[2] = tested on: Pseudomonas aeruginosa ATCC 27853; experiment: as above; details: ATCC 27853
Outline: as §1

[3] = tested on: Escherichia coli ATCC 25922; experiment: as above; details: ATCC 25922
Outline: as §1

Salmonella dublin (Lane) = experiment: as above
Outline: as §1

[4] = tested on: Candida albicans ATCC 18804; experiment: MIC in yeasts, NCCLS M27-A2 broth microdilution, RPMI 1640 (Table 9, letter e); details: ATCC 18804
Procedure: Briefly, RPMI 1640 supplemented with glutamine and phenol red as a pH indicator was used in the broth microdilution method. A 96-well plate was inoculated so that the final inoculum of yeast for each well contained between 0.5×10^3 and 2.5×10^3 CFU/milliliter. […] Plates were incubated for 24 to 48 hours at 37° C. The lowest concentration of peptide that contained no visible growth was determined as the MIC. MIC values that utilized this method of MIC determination are indicated in Table 9 with a subscript letter “e.” “Peptide Number” corresponds to peptide compositions and corresponding designations in Table 3.

[5] = tested on: Staphylococcus aureus ATCC 29213; experiment: MIC, NCCLS M7-A6 broth microdilution, cation-adjusted Mueller Hinton broth (Table 9, no superscript); details: ATCC 29213
Outline: as §1

MIC S. epidermidis [1] [µg/mL]	MIC P. aeruginosa [2] [µg/mL]	MIC E. coli [3] [µg/mL]	MIC S. dublin (Salmonella dublin (Lane)) [µg/mL]	MIC C. albicans [4] [e ug/mL]	MIC S. aureus [5] [µg/mL]	SMILES
16 (≈ 13 µM)	32 (≈ 26.1 µM)	64 (≈ 52.2 µM)	64 (≈ 52.2 µM)	16	32 (≈ 26.1 µM)	CCCCCCCCCCCC(=O)N[C@H](CCCNC(=N)N)C(=O)N[C@H](CO)C(=O)N[C@H](CCCNC(=N)N)C(=O)N[C@H](Cc1c[nH]c2ccccc12)C(=O)N[C@H](CCCNC(=N)N)C(=O)N[C@H](CC(=O)O)C(=O)N[C@@H](C(=O)N[C@H](C)C(N)=O)C(C)C [Peptide 119, Lauryl-rsrwrdva-NH2] (Lauroyl-[dR][dS][dR][dW][dR][dD][dV][dA]-NH2)
>64	>64	>64	>64	>64	>64	CCCCCCCCCCCC(=O)N[C@H](CO)C(=O)N[C@H](CCCNC(=N)N)C(=O)N[C@H](Cc1c[nH]c2ccccc12)C(=O)N[C@H](CCCNC(=N)N)C(=O)N[C@H](CC(=O)O)C(=O)N[C@@H](C(=O)N[C@H](C)C(N)=O)C(C)C [Peptide 121, Lauryl-srwrdva-NH2] (Lauroyl-[dS][dR][dW][dR][dD][dV][dA]-NH2)
64 (≈ 58.3 µM)	>64	>64	>64	64	>64	CCCCCCCCCCCC(=O)N[C@H](Cc1c[nH]c2ccccc12)C(=O)N[C@H](CCCNC(=N)N)C(=O)N[C@H](CC(=O)O)C(=O)N[C@@H](C(=O)N[C@H](C)C(=O)N[C@H](CCCNC(=N)N)C(=O)N[C@H](CC(N)=O)C(N)=O)C(C)C [Peptide 123, Lauryl-wrdvarn-NH2] (Lauroyl-[dW][dR][dD][dV][dA][dR][dN]-NH2)
>64	>64	>64	>64	64	>64	CCCCCCCCCCCC(=O)N[C@H](CCCNC(=N)N)C(=O)N[C@H](CC(=O)O)C(=O)N[C@@H](C(=O)N[C@H](C)C(=O)N[C@H](CCCNC(=N)N)C(=O)N[C@H](CC(N)=O)C(=O)N[C@H](Cc1ccccc1)C(N)=O)C(C)C [Peptide 124, Lauryl-rdvarnf-NH2] (Lauroyl-[dR][dD][dV][dA][dR][dN][dF]-NH2)
>64	>64	>64	>64	8	>64	CCCCCCCCCCCC(=O)N[C@@H](C(=O)N[C@H](C)C(=O)N[C@H](CCCNC(=N)N)C(=O)N[C@H](CC(N)=O)C(=O)N[C@H](Cc1ccccc1)C(=O)N[C@H](CCSC)C(=O)N[C@H](CCCNC(=N)N)C(N)=O)C(C)C [Peptide 126, Lauryl-varnfmr-NH2] (Lauroyl-[dV][dA][dR][dN][dF][dM][dR]-NH2)
32 (≈ 20.9 µM)	>64	>64	>64	>64	>64	CCCCCCCCCCCC(=O)N[C@H](Cc1c[nH]c2ccccc12)C(=O)N[C@H](CCCNC(=N)N)C(=O)N[C@H](CC(=O)O)C(=O)N[C@@H](C(=O)N[C@H](C)C(=O)N[C@H](CCCNC(=N)N)C(=O)N[C@H](CC(N)=O)C(=O)N[C@H](Cc1ccccc1)C(=O)N[C@H](CCSC)C(=O)N[C@H](CCCNC(=N)N)C(N)=O)C(C)C [Peptide 129, Lauryl-wrdvarnfmr-NH2] (Lauroyl-[dW][dR][dD][dV][dA][dR][dN][dF][dM][dR]-NH2)
1 (≈ 0.523 µM)	4 (≈ 2.09 µM)	4 (≈ 2.09 µM)	2 (≈ 1.05 µM)	2	2 (≈ 1.05 µM)	CCCCCCCCCCCC(=O)N[C@@H](CCCNC(=N)N)C(=O)N[C@@H](CO)C(=O)N[C@@H](CCCNC(=N)N)C(=O)N[C@@H](Cc1c[nH]c2ccccc12)C(=O)N[C@@H](CCCNC(=N)N)C(=O)N[C@@H](CC(=O)O)C(=O)N[C@H](C(=O)N[C@@H](C)C(=O)N[C@@H](CCCNC(=N)N)C(=O)N[C@@H](CC(N)=O)C(=O)N[C@@H](Cc1ccccc1)C(=O)N[C@@H](CC(C)C)C(=O)N[C@@H](CCCNC(=N)N)C(N)=O)C(C)C [Peptide 135, Lauryl-RSRWRDVARNFLR-NH2] (Lauroyl-RSRWRDVARNFLR-NH2)
>64	>64	>64	>64	2	>64	CCCCCCCCCCCC(=O)N[C@@H](CCCNC(=N)N)C(=O)N[C@@H](CO)C(=O)N[C@@H](CCCNC(=N)N)C(=O)N[C@@H](Cc1c[nH]c2ccccc12)C(=O)N[C@@H](CCCNC(=N)N)C(=O)N[C@@H](CC(=O)O)C(=O)N[C@H](C(=O)N[C@@H](CC(C)C)C(=O)N[C@@H](CCCNC(=N)N)C(=O)N[C@@H](CC(N)=O)C(=O)N[C@@H](Cc1ccccc1)C(=O)N[C@@H](CC(C)C)C(=O)N[C@@H](CCCNC(=N)N)C(=O)N[C@@H](CC(C)C)C(=O)N[C@@H](CC(C)C)C(N)=O)C(C)C [Peptide 138, Lauryl-RSRWRDVLRNFLRLL-NH2] (Lauroyl-RSRWRDVLRNFLRLL-NH2)
8 (≈ 3.47 µM)	>64	64 (≈ 27.8 µM)	>64	4	64 (≈ 27.8 µM)	CCCCCCCCCCCC(=O)N[C@@H](CCCNC(=N)N)C(=O)N[C@@H](CO)C(=O)N[C@@H](CCCNC(=N)N)C(=O)N[C@@H](Cc1c[nH]c2ccccc12)C(=O)N[C@@H](CCCNC(=N)N)C(=O)N[C@@H](CC(=O)O)C(=O)N[C@H](C(=O)N[C@@H](C)C(=O)N[C@@H](CCCNC(=N)N)C(=O)N[C@@H](CC(N)=O)C(=O)N[C@@H](Cc1ccccc1)C(=O)N[C@@H](CCSC)C(=O)N[C@@H](CCCNC(=N)N)C(=O)N[C@@H](Cc1c[nH]c2ccccc12)C(=O)N[C@@H](Cc1c[nH]c2ccccc12)C(N)=O)C(C)C [Peptide 142, Lauryl-RSRWRDVARNFMRWW-NH2] (Lauroyl-RSRWRDVARNFMRWW-NH2)
8 (≈ 3.57 µM)	>64	>64	64 (≈ 28.5 µM)	32	32 (≈ 14.3 µM)	CCCCCCCCCCCC(=O)N[C@@H](CCCNC(=N)N)C(=O)N[C@@H](CO)C(=O)N[C@@H](CCCNC(=N)N)C(=O)N[C@@H](Cc1c[nH]c2ccccc12)C(=O)N[C@@H](CCCNC(=N)N)C(=O)N[C@@H](CC(=O)O)C(=O)N[C@@H](Cc1c[nH]c2ccccc12)C(=O)N[C@@H](C)C(=O)N[C@@H](CCCNC(=N)N)C(=O)N[C@@H](CC(N)=O)C(=O)N[C@@H](Cc1c[nH]c2ccccc12)C(=O)N[C@@H](CCSC)C(=O)N[C@@H](CCCNC(=N)N)C(=O)N[C@@H](Cc1c[nH]c2ccccc12)C(N)=O [Peptide 144, Lauryl-RSRWRDWARNWMRW-NH2] (Lauroyl-RSRWRDWARNWMRW-NH2)
16 (≈ 6.58 µM)	>64	>64	>64	2	>64	CCCCCCCCCCCC(=O)N[C@@H](CCCNC(=N)N)C(=O)N[C@@H](CO)C(=O)N[C@@H](CCCNC(=N)N)C(=O)N[C@@H](Cc1c[nH]c2ccccc12)C(=O)N[C@@H](CCCNC(=N)N)C(=O)N[C@@H](CC(=O)O)C(=O)N[C@@H](Cc1c[nH]c2ccccc12)C(=O)N[C@@H](C)C(=O)N[C@@H](CCCNC(=N)N)C(=O)N[C@@H](CC(N)=O)C(=O)N[C@@H](Cc1c[nH]c2ccccc12)C(=O)N[C@@H](CCSC)C(=O)N[C@@H](CCCNC(=N)N)C(=O)N[C@@H](Cc1c[nH]c2ccccc12)C(=O)N[C@@H](Cc1c[nH]c2ccccc12)C(N)=O [Peptide 145, Lauryl-RSRWRDWARNWMRWW-NH2] (Lauroyl-RSRWRDWARNWMRWW-NH2)
4 (≈ 1.75 µM)	>64	>64	64 (≈ 28 µM)	2	64 (≈ 28 µM)	CCCCCCCCCCCC(=O)N[C@@H](CCCNC(=N)N)C(=O)N[C@@H](CO)C(=O)N[C@@H](CCCNC(=N)N)C(=O)N[C@@H](Cc1c[nH]c2ccccc12)C(=O)N[C@@H](CCCNC(=N)N)C(=O)N[C@@H](CC(=O)O)C(=O)N[C@@H](Cc1c[nH]c2ccccc12)C(=O)N[C@@H](C)C(=O)N[C@@H](CCCNC(=N)N)C(=O)N[C@@H](CC(N)=O)C(=O)N[C@@H](Cc1c[nH]c2ccccc12)C(=O)N[C@@H](CCSC)C(=O)N[C@@H](CCCNC(=N)N)C(=O)N[C@@H](CC(C)C)C(=O)N[C@@H](CC(C)C)C(N)=O [Peptide 146, Lauryl-RSRWRDWARNWMRLL-NH2] (Lauroyl-RSRWRDWARNWMRLL-NH2)
